Test results: US4238491A (priority 1977, dated 1980)
Like-named read-outs stand apart in the source and are kept apart here.

What was measured:
rat = details: oral
blood pressure of SHR = test: Antihypertensive effect by repeated administration, SHR; type: in vivo, rat (spontaneously hypertensive rats
Method: The effect was determined through a direct cannulation by using male SHRs aged 25 to 30 weeks and weighing about 300 g. […] Blood pressures were measured twice a day, just before and 4 hours after the administration with blood pressure recorder 8002 made by W+W Electronic.

rats [1] = system: rats
Method: The rate were bred in individual cages under the following conditions: temperature, 23°±2° C.; relative humidity, 55±5%; free taking of solid food (CE-2, CLEA Japan, Inc.) and tap water.
Volume of the medicine solution for one administration was dicided to be 1 ml per 100 g of weight, and the dose was administered once a day, 6 times a week over 5 weeks. The control group received the same volume of 0.2% carboxymethyl cellulose solution.
After the final administration followed by 24 hours fast, the following analyses were made: Glucose (by o-toluidine-boric acid method); Total Protein (by biurett method); Blood Uria Nitrogen (diacetyl monoxime method); GOT and GPT Activities (Reitman-Frankel method); Alkaline Phosphatase Activity (Kind-King method); and Sodium and Potassium Content (flame-photometer).

motorability = test: Effect on motorability (rotating bar); type: in vivo, mouse (dd-strain); details: 25 mg/kg oral; for Number of Animals that fell: 10 examined
Method: 25 mg/kg of MR were administered to 10 mice per one group. The mice were put on a wooden bar of 2 cm diameter which rotated at 10 r.p.m., and the number of mice which fell down from the bar was counted.

[2] = rat, in vivo, po
[3] = 20 mg/kg oral
Method: Blood was drawn from branchial vein of dogs, vein of ear of rabbits and carotic artery of rats after slaughter. Urine was collected with urine bladder catheter for rabbits and metabolic cages for rats. Gathering bile was performed with biliary duct cannulation without anesthesia.

[4] = system: noradrenaline in heart and adrenals; details: in vivo; cited from earlier work
histamine = details: in vivo; cited from earlier work
Solubility = type: physicochemical
[5] = Effect on body temperature; type: in vivo, mouse (dd-strain); details: 25 mg/kg oral
[6] = Excretion into urine after oral administration; details: rabbit, 10 mg/kg
Source text: Urine was collected with urine bladder catheter for rabbits and metabolic cages for rats.

rats [7] = system: rats; remark: listed apart in the source
Method: Urinanalysis was conducted on the last day of the repeated administration as to pH, protein content, glucose content, ketone body content and occult blood by testing paper methods. (Labstix, Miles-Sankyo Co., Ltd.)

serotonin in Brain = details: in vivo; cited from earlier work
[8] = in vivo; cited from earlier work
[9] = system: spontaneous motor activity; test: Effect on spontaneous motor activity; type: in vivo, mouse (dd-strain); details: 25 mg/kg oral
Method: 25 mg/kg of MR were administered to the mice. After 15 minutes of letting them alone, spontaneous motor activity over 6 hours was measured hourly with an "Animex" made by AB Farad.

COC(=O)[C@H]1[C@H]2C[C@@H]3c4[nH]c5cc(OC)ccc5c4CCN3C[C@H]2C[C@@H](O)[C@@H]1OC [MR, methylreserpate]
LD50 as multiple of clinical dosage of RCN (rat): about 24,000 times
blood pressure 24 hours after administration (blood pressure of SHR; oral, once a day over 2 weeks): had returned almost to the original level
disappearance of effect compared with RSP (blood pressure of SHR; rat, in vivo): disappears more rapidly than that of RSP
tolerance (blood pressure of SHR; repeated administration over 2 weeks): hardly giving tolerance
long lasting effect (blood pressure of SHR; single and repeated administration to SHRs): no long lasting effect
ALP (rats [1]; 25.0 mg/kg, 30 days): 17.0±0.93 K.A.U.
BUN (rats [1]; 25.0 mg/kg, 30 days): 15.7 ± 0.77 mg/dL
GOT (rats [1]; 25.0 mg/kg, 30 days): 92.2±8.74 K.U.
Glucose (rats [1]; 25.0 mg/kg, 30 days): 155.4 ± 6.06 mg/dL
Total Protein (rats [1]; 25.0 mg/kg, 30 days): 6.65 ± 0.08 g/dL
ALP (rats [1]; 50.0 mg/kg, 30 days): 18.7±1.39 K.A.U.
Total Protein (rats [1]; 50.0 mg/kg, 30 days): 6.76 ± 0.18 g/dL
BUN (rats [1]; 50.0 mg/kg, 30 days, P<0.05): 17.2 ± 0.56 mg/dL
GOT (rats [1]; 50.0 mg/kg, 30 days, P<0.05): 117.1±10.48 K.U.
Glucose (rats [1]; 50.0 mg/kg, 30 days, P<0.05): 113.7 ± 5.25 mg/dL
ALP (rats [1]; 100.0 mg/kg, 30 days): 22.7±2.91 K.A.U.
Total Protein (rats [1]; 100.0 mg/kg, 30 days): 6.57 ± 0.28 g/dL
BUN (rats [1]; 100.0 mg/kg, 30 days, P<0.05): 17.5 ± 1.01 mg/dL
GOT (rats [1]; 100.0 mg/kg, 30 days, P<0.05): 114.9±7.02 K.U.
Glucose (rats [1]; 100.0 mg/kg, 30 days, P<0.05): 100.5 ± 8.60 mg/dL
serum glucose (rats [1]; 50 and 100 mg/kg groups): decrease of glucose value
other serum biochemistry (rats [1]; all determinations other than glucose): all within the scope of normal values
ALP (rats [1]; rat, in vivo): 18.8±10.82
BUN (rats [1]; rat, in vivo): 14.6±0.35
GOT (rats [1]; rat, in vivo): 80.4±7.55
Glucose (rats [1]; rat, in vivo): 149.3±3.36
Total Protein (rats [1]; rat, in vivo): 7.06±0.09
Number of Animals that fell (motorability; 1 hour after): 0 Number of Animals
Number of Animals that fell (motorability; 2 hours after): 2 Number of Animals
effect on motorability (motorability; 3 hours after): slight suppression of motorability
Number of Animals that fell (motorability; 3 hours after): 4 Number of Animals
metabolism [2]: hardly metabolized
Area under the Curve of MR Content in Serum [3]: 63.6
noradrenaline in heart and adrenals [4]: slight decrease of noradrenaline in heart and adrenals
histamine (histamine): increse of histamine
solubility in chloroform (Solubility): easily soluble
solubility in ethanol (Solubility): easily soluble
solubility in methanol (Solubility): easily soluble
solubility in water (Solubility): hardly soluble
body temperature (rectal) ([5]; 1 hour after): 36.6±0.2 °C
body temperature (rectal) ([5]; 2 hours after): 36.2± 0.2 °C
body temperature (rectal) ([5]; 3 hours after): 35.6±0.1 °C
effect on body temperature ([5]; 3 hours after): a slight decrease in the temperature
dose excreted at 48 h [6]: 10 to 15%
urine Glucose - (rats [7]; 25.0 mg/kg): 10 Number of Rats
urine Ketone Body + (rats [7]; 25.0 mg/kg): 0 Number of Rats
urine Ketone Body - (rats [7]; 25.0 mg/kg): 10 Number of Rats
urine Occult Blood - (rats [7]; 25.0 mg/kg): 10 Number of Rats
urine Protein + (rats [7]; 25.0 mg/kg): 6 Number of Rats
urine Protein ++ (rats [7]; 25.0 mg/kg): 4 Number of Rats
urine Protein +++ (rats [7]; 25.0 mg/kg): 0 Number of Rats
urine Protein - (rats [7]; 25.0 mg/kg): 0 Number of Rats
urine pH 6 (rats [7]; 25.0 mg/kg): 2 Number of Rats
urine pH 7 (rats [7]; 25.0 mg/kg): 7 Number of Rats
urine pH 8 (rats [7]; 25.0 mg/kg): 1 Number of Rats
urine Glucose - (rats [7]; 50.0 mg/kg): 10 Number of Rats
urine Ketone Body + (rats [7]; 50.0 mg/kg): 1 Number of Rats
urine Ketone Body - (rats [7]; 50.0 mg/kg): 9 Number of Rats
urine Occult Blood - (rats [7]; 50.0 mg/kg): 10 Number of Rats
urine Protein + (rats [7]; 50.0 mg/kg): 6 Number of Rats
urine Protein ++ (rats [7]; 50.0 mg/kg): 4 Number of Rats
urine Protein +++ (rats [7]; 50.0 mg/kg): 0 Number of Rats
urine Protein - (rats [7]; 50.0 mg/kg): 0 Number of Rats
urine pH 6 (rats [7]; 50.0 mg/kg): 1 Number of Rats
urine pH 7 (rats [7]; 50.0 mg/kg): 7 Number of Rats
urine pH 8 (rats [7]; 50.0 mg/kg): 2 Number of Rats
urine Glucose - (rats [7]; 100.0 mg/kg): 10 Number of Rats
urine Ketone Body + (rats [7]; 100.0 mg/kg): 1 Number of Rats
urine Ketone Body - (rats [7]; 100.0 mg/kg): 9 Number of Rats
urine Occult Blood - (rats [7]; 100.0 mg/kg): 10 Number of Rats
urine Protein + (rats [7]; 100.0 mg/kg): 3 Number of Rats
urine Protein ++ (rats [7]; 100.0 mg/kg): 3 Number of Rats
urine Protein +++ (rats [7]; 100.0 mg/kg): 3 Number of Rats
urine Protein - (rats [7]; 100.0 mg/kg): 1 Number of Rats
urine pH 6 (rats [7]; 100.0 mg/kg): 2 Number of Rats
urine pH 7 (rats [7]; 100.0 mg/kg): 7 Number of Rats
urine pH 8 (rats [7]; 100.0 mg/kg): 1 Number of Rats
increase in urine volume, interpretation (rats [7]; higher doses): seems to be a diuretic effect
urinanalysis overall (rats [7]; last day of repeated administration): do not indicate abnormal feature any worth special mention
urine Glucose - (rats [7]; rat, in vivo): 10 Number of Rats
urine Ketone Body + (rats [7]; rat, in vivo): 0 Number of Rats
urine Ketone Body - (rats [7]; rat, in vivo): 10 Number of Rats
urine Occult Blood - (rats [7]; rat, in vivo): 10 Number of Rats
urine Protein + (rats [7]; rat, in vivo): 5 Number of Rats
urine Protein ++ (rats [7]; rat, in vivo): 3 Number of Rats
urine Protein +++ (rats [7]; rat, in vivo): 2 Number of Rats
urine Protein - (rats [7]; rat, in vivo): 0 Number of Rats
urine pH 6 (rats [7]; rat, in vivo, pH 6): 3 Number of Rats
urine pH 7 (rats [7]; rat, in vivo, pH 7): 4 Number of Rats
urine pH 8 (rats [7]; rat, in vivo, pH 8): 3 Number of Rats
serotonin in Brain (serotonin in Brain): no decrease of serotonin in Brain
antihypertensive effect [8]: no antihypertensive effect
average suppressive effect among four groups ([9]; P=0.05): no significant difference
effect on spontaneous motor activity ([9]; from 3 hours after): tended to supress spontaneous motor activity
